# Reference: patent US8846044B2, “Stabilizing alkylglycoside compositions and methods thereof” (Aegis Therapeutics, LLC, priority 2006, dated 2014)
# Read-outs that look alike come from different tables or passages of the source.
# Key:
# [1] = in water; cited from earlier work
# [2] = system: people with AIDS; conditions: cited from earlier work; for Patients with improved neuro-psychological performance: early AIDS dementia (Kosten et al., 1997)
# [3] = system: HIV BaL; assay type: cell-based, HIV-1; conditions: dried, in water about three days
# [4] = system: HIV BaL; assay type: cell-based, HIV-1; conditions: dried
# Protocol: Inhibition of HIV infection is studied by utilizing an infection assay in which GHOST CD4 CCR5 cells are infected with HIV BaL, an R5 tropic isolate (Ruff, M R et al., 2001). Infection is detected via viral induction of the hGFP gene (green fluorescent protein) 48 hrs post-infection. Trays are measured in a plate reader to determine fluorescence intensity. All infections are performed by adding fresh culture medium containing approximately 1,000 infectious units of HIV-1 per well (96-well plates). […]
# The peptide was dissolved in the indicated concentration of TFE in water and then shaken or agitated for 24 hrs at 37° C. The peptide was subsequently dried down, and the TFE/water mixture removed under vacuum. […] Although TFE is removed, residual traces of TFE within acceptable range for human consumption may remain.
# Inhibition of HIV infection was studied by utilizing an infection assay using GHOST CD4 as previously described by Ruff, M R et al., 2001. CCR5 cells are infected with HIV BaL, an R5 tropic isolate. Infection is detected via viral induction of the hGFP gene (green fluorescent protein) about 48 hours post-infection. Trays were measured in a plate reader to determine fluorescence intensity. All infections were performed by adding fresh culture medium containing approximately 1,000 infectious units of HIV-1 per well (96-well plates).
# Again, the peptide was then evaporated or dried down, and resuspended in an aqueous solution, e.g., water for about three days, and tested for anti-HIV activity, as above.
# [5] = system: HIV; assay: Inhibition of HIV infectivity in vitro by stored DAPTA solutions; assay type: cell-based
# Protocol: Aggregation is discovered to be associated with a loss of biological activity in vitro. Typically, the recommended protocol is to have DAPTA stored at 0.1 mM solutions in water at 4° C.
# Aggregation is reduced in the presence of trifluoroethanol (TFE). TFE was selected because of its property of reducing certain types of protein-protein interactions. DAPTA was dissolved in either distilled water, or solutions containing between 60% and 100% TFE. Aggregation was evaluated by assaying inhibition of HIV infectivity, in vitro. […] Also, TFE is capable of disassociating preformed aggregates of DAPTA. Aggregates of DAPTA, formed in distilled water were disrupted by addition of TFE to 80%, as measured by EM.
# [6] = system: envelop (gp120) binding; conditions: 1987 report; cited from earlier work
# [7] = DAPTA fibril formation in solution (EM, FTIR, CD, dye binding); assay type: physicochemical; conditions: for Time to form aggregates: distilled water, 10 mg/ml
# Protocol: Preparation of DAPTA solutions. DAPTA was dissolved in water, and solutions maintained at various temperatures and times. To prepare fibrils, DAPTA was prepared at 10 mgs/mL in water and stored overnight at 4° C.
# Determining fibril formation.
# Congo red was dissolved in PBS (5 mM potassium phosphate, 150 mM NaCl, pH 7.4) to a concentration of 7 ug/mL. The solution was chilled to 4° C., and DAPTA added as a 10 mg/mL stock solution in water, to yield final peptide concentration in the dye solution of 0.48 mg/mL. Peptide solution immediately after dissolution of powder was compared with an aged stock solution containing aggregated peptides. Spectra were collected between 400-700 nm, at 4° C.
# Fibril formation of peptide T or analog thereof can also be determined using Circular Dichroism (CD) spectroscopy. Ten mg/mL solutions in water of either freshly prepared peptide or containing fibrillar aggregates was added to distilled water at 4° C. to a concentration of 50 ug/mL. CD spectra were collected on a Jasco model J-810 spectrometer using a 0.1 cm path length quartz cuvette, between 190-250 nm, with a […] interval, and a response time of 2 sec.
# Still another method of determining fibril formation of peptide T or analog thereof is performed using Fourier Transform Infrared (FTIR) Spectroscopy. DAPTA was dissolved in deuterated water, to a concentration of 10 mg/ml and incubated under temp and time conditions that promote fibril formation. 25 ul samples were then placed in a pre-cooled transmission cell with NaCl windows separated by a 6 um spacer. FTIR spectra were collected on a BioRad FTS-175C Fourier transform spectrometer in transmission mode using a DTGS detector. 2506 interferograms were recorded with a 2 cm-1 resolution. Water vapor was subtracted and the spectra baselines corrected.
# [8] = system: isolated nasal cilia; conditions: cited from earlier work
# [9] = system: nasal mucosa; conditions: cited from earlier work
# [10] = Light scatter of beta interferons, Pramlintide and calcitonin with and without dodecyl maltoside; conditions: 37° C., 150 RPM, 38 day test period
molecule,measurement,setting,value
CCCCCCCCCCCCCCO[C@@H]1O[C@H](CO)[C@@H](O[C@@H]2O[C@@H](CO)[C@H](O)[C@@H](O)[C@@H]2O)[C@H](O)[C@H]1O (stereo in doubt) [Tetradecyl maltoside],CMC,[1],0.01 mM
CCCCCCCCCCCCCO[C@@H]1O[C@H](CO)[C@@H](OC2OC(CO)C(O)C(O)C2O)[C@H](O)[C@H]1O (stereo in doubt) [Tridecyl maltoside],CMC,[1],0.03 mM
CCCCCCCCCCO[C@@H]1O[C@H](CO)[C@@H](O[C@H]2O[C@H](CO)[C@@H](O)[C@H](O)[C@H]2O)[C@H](O)[C@H]1O [Decyl maltoside],CMC,[1],1.8 mM
CCCCCCCCCCCCO[C@@H]1O[C@H](CO)[C@@H](O[C@H]2O[C@H](CO)[C@@H](O)[C@H](O)[C@H]2O)[C@H](O)[C@H]1O [Dodecyl β-D-maltoside],CMC,[1],0.17 mM
CCCCCCCCO[C@@H]1O[C@H](CO)[C@@H](O[C@H]2O[C@H](CO)[C@@H](O)[C@H](O)[C@H]2O)[C@H](O)[C@H]1O [Octyl maltoside],CMC,[1],19.5 mM
D-ala^1-Peptide T-amide [DAPTA],Neuropsychological performance versus placebo,"[2]; 2 mg three times daily intranasally, at least four months (Heseltine et al., 1998)",no difference in neuropsychological performance
same,Patients with improved neuro-psychological performance,[2]; high dose (15 mg daily),4/5
same,Persistently infected monocyte reservoir,"[2]; human, in vivo",greatly reduced or flushed to undetectable levels in all patients
same,Patients with improved neuro-psychological performance,[2]; low dose (1.5 mg daily),1/4
same,Lower limb pain in HIV-related peripheral neuropathy,"[2]; nine individuals, subcutaneously 10 mg daily (MacFadden and Doob 1991)",complete or subjectively significant resolution of lower limb pain
same,Adverse drug effects,"[2]; nine individuals, subcutaneously (MacFadden and Doob 1991)",No adverse drug effects were noted
same,Cognitive and neuromotor function versus controls,"[2]; phase I, 0.1 to 3.2 mg/kg/day intravenously, moderate impairment (Bridge et al. 1989)",Cognitive and neuromotor function improved
same,Painful peripheral neuropathy versus placebo,"[2]; phase II double-blind, 6 mg/day for 12 weeks (Simpson et al. 1996)",no statistically significant differences
same,Percent Reduction in HIV Infection,"[3]; 80% TFE, shaken about 24 hours at Room Temp.",70 ± 6%
same,Percent Reduction in HIV Infection,"[3]; about 80% TFE/water, shaken 12 hrs at 37 degrees",70 ± 4%
same,Percent Reduction in HIV Infection,"[3]; about 80% TFE/water, shaken 48 hrs at 37 degrees",100 ± 3%
same,Percent Reduction in HIV Infection,"[4]; 0.1 nM DAPTA, TFE Concentration 0 %, shaken 24 hrs at 37° C., stored in water about 3 days",0 ± 2%
same,Percent Reduction in HIV Infection,"[4]; 0.1 nM DAPTA, TFE Concentration 20 %, shaken 24 hrs at 37° C., stored in water about 3 days",0 ± 3%
same,Percent Reduction in HIV Infection,"[4]; 0.1 nM DAPTA, TFE Concentration 40 %, shaken 24 hrs at 37° C., stored in water about 3 days",0 ± 2%
same,Percent Reduction in HIV Infection,"[4]; 0.1 nM DAPTA, TFE Concentration 60 %, shaken 24 hrs at 37° C., stored in water about 3 days",20 ± 4%
same,Percent Reduction in HIV Infection,"[4]; 0.1 nM DAPTA, TFE Concentration 80 %, shaken 24 hrs at 37° C., stored in water about 3 days",100 ± 5%
same,Percent Reduction in HIV Infection,"[4]; 0.1 nM DAPTA, TFE Concentration 100 %, shaken 24 hrs at 37° C., stored in water about 3 days",98 ± 3%
same,Percent Reduction in HIV Infection,"[4]; 80% TFE, shaken about 24 hours at 37 ° C., in water about three days",100 ± 5%
same,Percent Reduction in HIV Infection,"[4]; about 80% TFE/water, shaken 24 hrs at 37 degrees, in water about three days",100 ± 3%
same,Time to substantial loss of activity (HIV uptake inhibition in vitro),[5]; 0.1 mM solution in water at 4° C.,about 6 weeks
same,Activity after storage (inhibition of HIV infectivity in vitro),[5]; stored in TFE between 60% and 100% versus water,retained more activity
same,Concentration that blocks envelop (gp120) binding and inhibits viral infectivity,[6],10 pM
same,Dissociation of aggregates on warming,"[7]; 5 mg/mL in 0.45% NaCl, warmed to 37° C. for about 17-24 hours with shaking",reversibly dissociate
same,Time to observable fibril formation,"[7]; 0.9% saline (10 mg/mL), room or ambient temperature",≤ 48 h
same,Time to observable fibrillization,"[7]; 0.9% saline (10 mg/mL), stored at 4° C.",less than 1 hour
same,"Effect of TFE on preformed aggregates, by EM","[7]; aggregates formed in distilled water, TFE added to 80%",disrupted
same,Time to form aggregates,[7]; 4 deg. C.,≤ 2 h
same,Time to form aggregates,[7]; room temperature,24 to 170 h
Sucrose dodecanoate,CMC,[1],0.3 mM
benzalkonium chloride [BAC],Effect on isolated nasal cilia in vitro,[8],ciliotoxic
same,Saccharine transport time and proinflammatory indicators in vivo,[9],did not alter saccharine transport time
same,Damage to the nasal mucosa,[9]; in vivo,no significant damage to the nasal mucosa
same,Nasal irritation,[9]; in vivo,no discernible negative effects
same,Nasal mucosal function,[9]; in vivo,no detectable effect on the nasal mucosal function
"Betaseron®: beta interferon 1b, Lot number YA0549A (protein, UniProt P01574 22-187, looked up, variant C17S, interferon beta-1b, lacks N-terminal Met) Interferon beta: MSYNLLGFLQRSSNFQSQKLLWQLNGRLEYCLKDRMNFDIPEEIKQLQQFQKEDAALTIYEMLQNIFAIFRQDSSSTGWNETIVENLLANVYHQINHLKTVLEEKLEKEDFTRGKLMSSLHLKRYYGRILHYLKAKEYSHCAWTIVRVEILRNFYFINRLTGYLRN",Aggregation as increase in light scatter,[10],much larger increase in light scatter
same,"Stabilization by 0.2% Dodecyl maltoside, in words",[10]; light scatter at 500 nm,greatest stabilization effect
